According to a melting point compilation (Tetko et al.; mined from patent text by program, amines drawn as free bases though some values may be those of a salt):

Work on `Cc1nc(C)c(Cl)c(NCc2ccc(OCCn3c([N+](=O)[O-])cnc3C)c(Cl)n2)n1` yielded a melting point of 206 to 208 °C.
With `Cn1c2c(c3c4c(N)nc(N)nc4ccc31)CCCC2` the melting point was 288 to 292 °C.
`CC(C)c1ccc2ncn(/C=C/C(=O)NCCNCc3ccccn3)c(=O)c2c1` showed a melting point of 91 to 95 °C.
`CCc1nc(C2CC2)c(C(=O)O)n1Cc1ccc2oc(-c3ccccc3-c3nnn[nH]3)c(Br)c2c1` showed a melting point of 198 °C.
Work on `CCOC(OCC)C(N)c1nnnn1C` (stereo not drawn) yielded a melting point of 99 to 101 °C.
`CC(=O)NC(Cc1ccccc1)C(O)C(Cc1ccccc1)NC(C)=O` (stereo not drawn) showed a melting point of 125 to 126 °C.
Work on `CS(=O)(=O)Cc1nnc(-c2ccc3occ(-c4cccc(OC(F)(F)F)c4)c3c2)o1` yielded a melting point of 162 to 163 °C.
For `CCCNS(=O)(=O)c1nc2ccc(OCC)cc2s1`, the melting point was 112 to 113 °C.
`Cc1c(-c2ccc(S)nn2)ssc1=S` showed a melting point of 245 °C.
For `Cc1ccnc(C(O)c2ccc(N)cc2C(F)(F)F)c1` (stereo not drawn), the melting point was 120 to 123 °C.
For `Cc1cccc2c(C3=CCN(C[C@H](O)COc4cccc5[nH]ccc45)CC3)c[nH]c12`, the melting point was 155 to 158 °C.
Work on `CC1=C(C(=O)OC(C)(C)C)C(c2ccc(Br)cc2)C(C(=O)OC(C)(C)C)=C(C)N1` yielded a melting point of 206 to 207 °C.
`CCOC(=O)c1cnn2c1nc(S)c1cnc3c(cnn3CC)c12` showed a melting point of 238 to 240 °C.
With `CCCCN1CC(=O)NC1=O` the melting point was 90 to 92 °C.
Molecule `COC(=O)c1cccc(Cn2ccc(OCc3ccc(F)cc3F)c(Br)c2=O)c1` has a melting point of 115 to 117 °C.
`CC(C)CCN1C(=O)C(NC(=O)Oc2ccccc2)C(=O)N(c2ccccc2)c2ccc(Cl)cc21` (stereo not drawn) gave a melting point of 190 to 195 °C.
Work on `CCCOC1=C(c2ccccc2)C(CCC(=O)O)OC1=O` (stereo not drawn) yielded a melting point of 123 to 125 °C.
In the case of `Cc1nc(NC(=O)c2cnn3c(C(F)(F)F)cc(-c4ccc(C(F)(F)F)cc4)nc23)sc1S(=O)(=O)NC(CO)CO`, the melting point is reported as 215 °C.
`CSC(=Nc1c(C)nn(C)c1C)Nc1cc(Cl)ccc1C` gave a melting point of 134 to 135 °C.
In the case of `O=[N+]([O-])c1cc2cc(Br)ccc2nc1Cl`, the melting point is reported as 203 °C.
With `Cn1c2ccccc2c2oc(C(N)=O)cc(=O)c21` the melting point was over 295 °C.
`CC(CCNC1=Nc2cccc3cccc1c23)c1cccnc1` (stereo not drawn) showed a melting point of 160 to 163 °C.
`COc1cc(-c2oc3ccccc3c(=O)c2C(=O)NCCCCN2CCN(c3ccccn3)CC2)cc(OC)c1OC` gave a melting point of 168 to 173 °C.
`COC(=O)c1ccc(S(=O)(=O)N2CC[C@H](O)C2)n1C` gave a melting point of 108 to 109 °C.
In the case of `CCN(CC)c1ccc2c(c1)OC(C(F)(F)F)C(C(=O)O)=C2` (stereo not drawn), the melting point is reported as 214 to 215 °C.
With `Nc1ncccc1-c1nc2ccc(-c3ccncc3)nc2n1-c1ccc(CNC(=O)c2ccccc2)cc1` the melting point was 231 to 233 °C.
Work on `O=S1(=O)c2ccccc2NC(CO)c2cccn21` (stereo not drawn) yielded a melting point of 135 to 136 °C.
Work on `CCOC(=O)NCC1CO1` (stereo not drawn) yielded a melting point of 75 to 78 °C.
Work on `CC(OC(=O)N(C(C)C)C(C)C)c1ccccc1[N+](=O)[O-]` (stereo not drawn) yielded a melting point of 40 to 41 °C.
In the case of `CC(C)(C)OC(=O)N1CCn2c(c(C(N)=O)c(Cl)c2-c2ccccc2)C1`, the melting point is reported as 183 to 185 °C.
Work on `Cn1cc(Br)cc(Nc2ccc(OC3CN(C(=O)OC(C)(C)C)C3)cn2)c1=O` yielded a melting point of 120 to 121 °C.
`O=c1c2cc(F)c(N3CCCC3)nc2n(-c2ccccc2F)c(=O)n1O` gave a melting point of over 250 °C.
`CCSCC(=C1NCCCS1)[N+](=O)[O-]` gave a melting point of 69.5 to 71 °C.
Work on `c1ccc(CN2CCC3(Cc4ccccc4O3)C2)cc1` (stereo not drawn) yielded a melting point of 43 to 45 °C.
`CCCc1ccc(CCc2ccc(-c3ccc(F)cc3)cc2)cc1` gave a melting point of 97 °C.
Work on `COc1ccc(N2CCN(c3c(C)c(C)c4c(c3C)C(CO)C(C)(C)O4)CC2)cc1` (stereo not drawn) yielded a melting point of 140 to 141 °C.
Molecule `Cc1ccc(S(=O)(=O)NCc2ccc(CCN3CCN(c4ccncc4)CC3)cc2)cc1` has a melting point of 180 to 182 °C.
With `COc1cccc(NC(=O)Nc2nc3nc(NCCCN4CCN(C)CC4)ncc3cc2-c2c(Cl)cccc2Cl)c1` the melting point was 87.5 to 92.5 °C.
Work on `CCOC(=O)C(C(=O)OC(C)(C)C)c1c([N+](=O)[O-])cc([N+](=O)[O-])c2ccccc12` (stereo not drawn) yielded a melting point of 86 to 88 °C.
`Cc1cc(C)nc(NC(=O)NS(=O)(=O)c2ccccc2-c2ccccc2)n1` showed a melting point of 78 °C.
`COc1ccc(-c2cc(=S)n(Cc3ccc(F)cc3F)nc2-c2ccc(OC)cc2)cc1` gave a melting point of 175 to 176 °C.
In the case of `CC(C)(C)c1nc2c(N)nc(-c3ccncc3)nc2[nH]1`, the melting point is reported as 272 to 274 °C.
In the case of `CCCS(=O)(=O)c1ccc2c(c1)C(=O)C(Br)C2` (stereo not drawn), the melting point is reported as 87 to 89 °C.
In the case of `CP(=O)(O)CCC(=O)Nc1c(Br)cc(Br)cc1Br`, the melting point is reported as 248 °C.
In the case of `CCOC(=O)c1cn(C[C@@H]2CN(c3ccc(N4CCC5(CC4)OCCO5)c(F)c3)C(=O)O2)nn1`, the melting point is reported as 168 to 170 °C.
`CC(C)C(C)C(=O)NC(C)(Cc1c[nH]c2ccccc12)C(=O)NCCc1ccccc1` (stereo not drawn) showed a melting point of 104 to 109 °C.
`CSc1ncc(Cc2ccccn2)c(=O)[nH]1` showed a melting point of 195 to 198 °C.
With `O=C1NC(=O)c2c(Sc3ccc(Cl)cc3)c(Sc3ccc(Cl)cc3)c(Sc3ccc(Cl)cc3)c(Br)c21` the melting point was 164 to 169 °C.
Molecule `CN(c1ccc(Cl)cc1)S(=O)(=O)c1cc(C(=O)Nc2ccc(S(C)=O)cc2)ccn1` (stereo not drawn) has a melting point of 172 to 174 °C.
In the case of `COC(=O)N(O)Cc1c(C)n(C(=O)c2ccc(Cl)cc2)c2ccc(OC)cc12`, the melting point is reported as 113 to 114 °C.
In the case of `Cc1cn(Nc2cccc(Cl)c2)c(=S)n1-c1ccc(Br)cc1`, the melting point is reported as 220 °C.
In the case of `N#CSCC(=O)N1CCCCC1`, the melting point is reported as 78 to 79 °C.
`COc1c(C)cc(C(=O)N2CCN(c3ncccc3NC(C)C)CC2)cc1C` gave a melting point of 89 to 93 °C.
`CCOC(=NC(=O)Nc1ccc(OC(F)(F)F)cc1)c1ccccc1Cl` gave a melting point of 86 to 89 °C.
In the case of `Cc1ccc(NC(=O)c2ccc(CN3CC[N+](C)([O-])CC3)cc2)cc1Nc1nccc(-c2cccnc2)n1`, the melting point is reported as 154 to 158 °C.
Work on `Clc1ccc(CNN2C=CN=CC2)cc1` yielded a melting point of 86 to 87 °C.
`CN(C)C[C@@H]1C(=O)N[C@H]1SC(c1ccccc1)(c1ccccc1)c1ccccc1` (relative stereo) gave a melting point of 129 to 131 °C.
With `N#CCCn1nnc2cc3c(cc2c1=O)OC1CCCN1C3=O` (stereo not drawn) the melting point was 184 to 186 °C.
In the case of `CCCNCC1Cc2ccc(-c3ccc(=O)[nH]n3)cc2C1` (stereo not drawn), the melting point is reported as 144 to 146 °C.
Work on `CC(C)(C)OC(=O)C[C@H](NC(=O)c1cccc(NC(=O)C(Cc2ccc(C(=N)N)cc2)NC(=O)OC(C)(C)C)c1)C(=O)N[C@@H](Cc1cccc2ccccc12)C(=O)O` (mixture of isomers) yielded a melting point of 263 to 265 °C.
With `O=C(O)C1CN(C(=O)N(c2ccccc2)c2ccccc2)CCN1C(=O)N(c1ccccc1)c1ccccc1` (stereo not drawn) the melting point was 244 to 246 °C.
In the case of `CC(C)=CCC/C(C)=C/Cn1c(CO)nc2ccccc21`, the melting point is reported as 120 to 123 °C.
With `O=c1[nH]c2ccccc2c(=O)n1CCCCCn1ccnc1` the melting point was 160 to 162 °C.
With `O=C1Cc2cc(Cl)cc(Oc3ccccc3F)c2N1` the melting point was 204 to 207 °C.
With `CC(C)=CCOc1ccc(C(=O)C=Cc2ccc(C)cc2)c(O)c1` the melting point was 108 to 109 °C.
In the case of `O=C(O)c1cnc(Cl)nc1-c1ccccc1`, the melting point is reported as 105 to 110 °C.
In the case of `Cc1ccc(S(=O)(=O)N2CCc3ccccc3C(Oc3ccccc3)C2)cc1` (stereo not drawn), the melting point is reported as 155 to 156 °C.
For `CSCc1cn(C)c2cc(C(C)(C)C)ccc2c1=O`, the melting point was 114 to 116 °C.
`CC(C)c1ccccc1SC1=C(O)CC(CCCCC(=O)O)(c2ccccc2)OC1=O` (stereo not drawn) gave a melting point of 145 to 146 °C.
Work on `CCCCC(=O)NCc1ccc2c(c1)C(=O)N(C1CCC(=O)NC1=O)C2=O` (stereo not drawn) yielded a melting point of 184 to 186 °C.
`NC1=CC(=O)CC(c2cccc(Cl)c2Cl)C1` (stereo not drawn) showed a melting point of 209 to 210 °C.
`CC1CC(=O)c2ccc(F)cc2O1` (stereo not drawn) gave a melting point of 42 to 47 °C.
Molecule `O=C(Nc1ccc(-n2nc(C(F)(F)F)cc2Cl)cc1)c1ccncc1F` has a melting point of 128 to 129 °C.
In the case of `COC1=C(OC)C(=O)c2c(N)cccc2C1=O`, the melting point is reported as 116 to 117 °C.
`O=C(O)CCc1cn(Cc2ccc(OCc3ccc(-c4ccccc4)nc3)cc2)cc1-c1ccccc1` gave a melting point of 185 to 186 °C.
Molecule `COC(=O)c1cc(I)cc(C)c1OC` has a melting point of 55 to 57 °C.
Molecule `COc1c(N2CCN(C)CC2)c(F)cc2c(=O)c(C(=O)O)cn(C3CC3)c12` has a melting point of 221 to 222 °C.
With `COc1ccc(-c2cccc3ccsc23)cc1` the melting point was 74 to 75 °C.
`CC(C)(C)OCCOc1cc(NC(=O)OC(C)(C)C)c(NC(=O)CC(=O)c2cccc(-n3ccnc3)c2)cc1-c1ccc(F)cc1` gave a melting point of 101 °C.
Molecule `CC(C)(C)c1cc2c(c(C(C)(C)C)c1)OC(=O)C2c1ccc(O)cc1` (stereo not drawn) has a melting point of 187 to 190 °C.
In the case of `CCC1Nc2cc(F)c(F)cc2-n2cccc21` (stereo not drawn), the melting point is reported as 67 to 69 °C.
Molecule `N#CC=Cc1ccc(Cl)cc1C(=O)c1ccccc1` has a melting point of 89 to 91 °C.
With `COCc1cnc2c(NC(=O)c3c(Cl)cccc3Cl)cccc2c1Cn1ccnc1` the melting point was 190 to 191 °C.
Molecule `CCOC(=O)c1nc2ccccc2[nH]c1=O` has a melting point of 169 to 170 °C.
In the case of `O=C(NO)C1(S(=O)(=O)c2ccc(OCc3ccccc3)cc2)CCN(Cc2ccccc2)CC1`, the melting point is reported as 89 °C.
`COc1ccc(C)cc1NC(=O)Nc1ccc2c(c1)C=CN(C(=O)Nc1c(C)cccc1Cl)C2` showed a melting point of 216 to 218 °C.
`C[C@@H](O[Si](C)(C)C(C)(C)C)[C@@H]1C(=O)N[C@@H]1S(=O)(=O)c1ccc([N+](=O)[O-])cc1[N+](=O)[O-]` gave a melting point of 148 to 149 °C.
In the case of `CN(c1ccccc1)P(N)(N)=O`, the melting point is reported as 97 to 99 °C.
In the case of `CCCCc1noc(-c2ccc(C=CC(=O)NCC3CCCC3(C)C)cc2)n1` (stereo not drawn), the melting point is reported as 144 to 145 °C.
`NC(=O)c1sc2ncnc(-c3cccc(NC(=O)Nc4ccncc4)c3)c2c1N` gave a melting point of 177 to 179 °C.
In the case of `CO/C=C(/C(=O)OC)c1cccnc1Oc1cccc(C=O)c1`, the melting point is reported as 84 to 86 °C.
For `COC(=O)c1ccccc1NC(=O)CC(C)=O`, the melting point was 79 to 80 °C.
Molecule `Cc1cc(C)c(C(=O)c2ccc(Cl)cc2)c(Cl)c1` has a melting point of 41 to 52 °C.
Work on `Cc1nc2sccn2c(=O)c1C` yielded a melting point of 112 to 113 °C.
In the case of `O=C1NCCN1C1CCN(CCC2COc3cc(Cl)c(Cl)cc3O2)CC1` (stereo not drawn), the melting point is reported as 85 to 90 °C.
Molecule `CC(C)(C)OC(=O)N=C(N)N(Cc1ccc(OCCC2Oc3cc([N+](=O)[O-])ccc3N(Cc3cccc(Cl)c3)C2=O)cc1)C(=O)OC(C)(C)C` (stereo not drawn) has a melting point of 67.5 °C.
`OC1CSC(Oc2ccc(-c3ccncc3)nc2Cl)C(O)C1O` (stereo not drawn) showed a melting point of 186 °C.
`COc1cccc(N(C)C)c1C(=O)NC(=O)Nc1cccc(C(F)(F)F)c1` gave a melting point of 180 °C.
